Measured values taken from patent publication US20120231015A1, “FRAGILE X MENTAL RETARDATION PROTEIN (FMRP), COMPOSITIONS, AND METHODS RELATED THERETO” (EMORY UNIVERSITY, priority 2009, published 2012).
Entries after “also recorded” stand apart in the source; their conditions may differ.

How the values were obtained:
cortical SNS = assay: Metabolic labeling of cortical SNS with [35S]methionine (synaptic translation rates); type: cell-based, mouse; conditions: for translation rates (amino acid incorporation): antagonist 50 μM; for translation rates ([35S] incorporation in 5 min): antagonist 10 μM
Experimental: (§1) Cortical SNS were prepared as described previously (Muddashetty et al., 2007) and treated with the indicated antagonists or solvent for 5 min at 37° C., for some experiments followed by DHPG (100 μM) for 15 min at 37° C. as indicated, and with puromycin (2 mM) for 30 min at 37° C. Metabolic labeling was performed with 100 μCi Pro-Mix, L-(35S) in vitro cell labeling mix (GE Healthcare) for 5 min. Triplicate samples from time point 0 and 5 min were washed once in homogenization buffer, followed by lysis (100 mM Tris-HCl, pH 7.4, 150 mM NaCl, 0.5% deoxycholate, and 1% Triton X-100, supplemented with proteinase inhibitors) and TCA precipitation. 35S-incorporation levels were estimated by scintillation counting.

PI3K (p110beta) = assay: In vitro PI3K assay with immunoprecipitated p110beta from treated cortical synaptoneurosomes (SNS); type: cell-based, mouse
Experimental: In vitro PI3K assays were performed as described previously (Ye et al., (2000) Cell 103:919-930) using p110beta antibody. In vitro extracellular signal-regulated kinase (ERK) activity assays were performed using the p44/42 MAP Kinase Assay kit from Cell Signaling Technology according to the manual. HEK293T cells were cultured in DMEM supplemented with 10% FBS. Fmr1-specific siRNA was transfected using LF2000 (Invitrogen) according to the manual. At 48 h after transfection, cells were scraped from the dish with PBS, divided into two equal parts for PI3K and ERK activity assays, respectively. […] Cortical synaptoneurosomes (SNS) were prepared as described previously (Muddashetty et al., (2007) J Neurosci 27:5338-5348.). SNS were split in two equal parts for PI3K and ERK activity assays. Cells and SNS were lysed in kinase assay buffers (for PI3K assay: 50 mM Tris-HCl, pH 7.4, 40 mM NaCl, 1 mM EDTA, 0.5% Triton X-100, 1.5 mM Na3VO4, 50 mM NaF, 10 mM sodium pyrophosphate, and 10 mM sodium β-glycerol phosphate, supplemented with proteinase inhibitors; for ERK activity assay: lysis buffer provided by Cell Signaling Technology). Lysates were cleared by centrifugation, and protein concentrations were determined by the Bradford method. For both kinase assays, the same amount of protein was used for wild-type (WT) and Fmr1 KO SNS or sifmr1 knockdown (KD) and sictr HEK293T cells, respectively. For measuring PI3K activity following various treatments, SNS were incubated for 10 min at 37° C. with either 100 μM (S)-3,5-dihydroxyphenylglycine (DHPG) or 10 μM 2-methyl-6-(phenylethynyl)-pyridine (MPEP) or for 1 h at 37° C. with tat-mGluR5-CT or tat-mGluR5-MUT peptides (5 μM) before lysis. For PI3K assays with cortical neurons, cells at 11d in vitro (DIV) were transfected with 10 μl of control adenovirus or adenovirus carrying short-hairpin PIKE-L (as described previously by Tang et al., (2008) Nat Cell Biol 10:698-706.) for 48 h. PI3K assays were performed with 300 μg of protein as described above. To confirm PIKE-L knockdown, 80 μg of protein was used for Western blot analyses using anti-PIKE-L antibody.

p110beta = p110beta protein levels by Western blot in cortical SNS; type: cell-based, mouse; conditions: DHPG 15 min, 50 μM
Experimental: SDS-PAGE and Western blots were performed as described previously (Muddashetty et al., 2007) and quantified using NIH ImageJ. Signal intensities of p110beta- and FMRP-specific bands were normalized to tubulin signal on the same blot. Signal intensities of phospho-proteins were normalized to total levels of the respective protein on the same blot. For this purpose, Western blots were stripped after detection with the phospho-specific antibodies using 100 mM β-mercaptoethanol and 2% SDS in 62.5 mM Tris-HCl, pH 6.8, at 50° C. for 30 min and, after extensive washing, detected with the respective antibody specific for the total protein.
as §1, with “[…],” for “for some experiments followed by DHPG (100 μM) for 15 min at 37° C. as indicated,”

PDK1 = conditions: hippocampal slices from Fmr1 KO mice; cited from earlier work
p110beta mRNA = p110beta mRNA in polysomal fractions of sucrose gradients, cortical SNS; type: cell-based, mouse
Experimental: Gradient preparation, centrifugation, fractionation, RNA purification, and qRT-PCRs were performed as described previously (Muddashetty et al., 2007).
as §1, with “[…],” for “for some experiments followed by DHPG (100 μM) for 15 min at 37° C. as indicated,”

[1] = tested on: primary hippocampal neurons; assay: Constitutive AMPAR internalization assay; type: cell-based, mouse; conditions: WT neurons
rat hippocampal neurons = conditions: siRNA-mediated FMRP deficiency; cited from earlier work

N[C@@H](CCCP(=O)(O)O)C(=O)O [APV]
translation rates (amino acid incorporation) (cortical SNS; Fmr1 KO SNS): failed to reduce augmented translation in KO | translation, genotype dependence of effect (cortical SNS; WT and Fmr1 KO SNS, APV 50 μM): affected translation similarly across genotypes

N[C@H](C(=O)O)c1cc(O)cc(O)c1 [DHPG, (S)-3,5-dihydroxyphenylglycine]
PI3K activity (PI3K (p110beta); Fmr1 KO SNS, DHPG 100 μM, 10 min): failed to activate PI3K; also recorded: significant reduction of PI3K activity; also recorded: decreased PI3K activity | PI3K activity (PI3K (p110beta); WT SNS, DHPG 100 μM, 10 min): twofold increase | p110beta protein expression (p110beta; Fmr1 KO SNS): occluded; also recorded: does not increase protein expression | p110beta protein levels (p110beta; WT SNS): led to increased p110beta protein levels; also recorded: increases p110beta protein levels | phosphorylation of PDK1 (PDK1): does not induce the phosphorylation of PDK1 | p110beta mRNA in puromycin-sensitive polysomal fractions (translation) (p110beta mRNA; Fmr1 KO SNS, DHPG 15 min, 50 μM): occluded | p110beta mRNA in puromycin-sensitive polysomal fractions (p110beta mRNA; WT SNS, DHPG 15 min, 50 μM): induced a significant shift of p110beta mRNA into puromycin-sensitive fractions; also recorded: leads to a shift of p110beta mRNA into puromycin-sensitive fractions | DHPG-induced translational activation (cortical SNS; Fmr1 KO SNS, no antagonist): occluded

O=c1cc(N2CCOCC2)oc2c(-c3ccccc3)cccc12 [LY294002, 2-(4-morpholinyl)-8-phenyl-1(4H)-benzopyran-4-one]
constitutive endocytosis of AMPARs in distal dendrites (median) ([1]; LY294002 50 μM for 1 h): 35.3 | translation rates (amino acid incorporation) (cortical SNS; Fmr1 KO SNS): could specifically rescue the excessive synaptic translation; also recorded: significantly reduced amino acid incorporation rates

O=c1cc(N2CCNCC2)oc2c(-c3ccccc3)cccc12 [LY303511, 2-(1-piperazinyl)-8-phenyl-4H-1-benzopyran-4-one]
translation rates (cortical SNS; SNS, inactive analog of LY294002): did not show any effect; also recorded: did not alter translation rates

Cc1cc(C(=O)O)ccc1[C@H](N)C(=O)O [LY367385]
translation rates ([35S] incorporation in 5 min) (cortical SNS; Fmr1 KO SNS): reduced synaptic Fmr1 KO translation; also recorded: significantly decreased translation rates

Cc1cccc(C#Cc2ccccc2)n1 [MPEP, 2-methyl-6-(phenylethynyl)-pyridine]
PI3K activity (PI3K (p110beta); Fmr1 KO SNS, MPEP 10 μM, 10 min at 37° C.): significantly reduced PI3K function; also recorded: significantly reduces PI3K activity | PI3K activity (PI3K (p110beta); WT SNS, MPEP 10 μM, 10 min at 37° C.): no significant effect | levels of internalized AMPARs (rat hippocampal neurons): rescued increased levels of internalized AMPARs | translation rates ([35S] incorporation in 5 min) (cortical SNS; Fmr1 KO SNS): reduced synaptic Fmr1 KO translation; also recorded: significantly decreased translation rates

N#CC(=C(N)Sc1ccccc1N)C(C#N)=C(N)Sc1ccccc1N [U0126, 1,4-diamino-2,3-dicyano-1,4-bis(o-aminophenylmercapto)butadiene]
constitutive endocytosis of AMPARs in distal dendrites (median) ([1]; U0126 20 μM for 1 h): 43.8 | DHPG-induced translational activation after antagonist pretreatment (cortical SNS; Fmr1 KO SNS, DHPG 100 μM, 15 min): did not rescue DHPG-stimulated translation; also recorded: but not by ERK1/2 inhibition | DHPG-induced translational activation after antagonist pretreatment (cortical SNS; WT SNS, DHPG 15 min, 100 μM): abolished DHPG-induced translational increase; also recorded: abolish | translation rates, genotype dependence of effect (cortical SNS; WT and Fmr1 KO SNS, U0126 20 μM): reduced protein synthesis levels independently of genotype to the same extent; also recorded: did not show a genotype-specific effect on translation rates

COc1ccc(C[C@H](N)C(=O)N[C@H]2[C@@H](O)[C@H](n3cnc4c(N(C)C)ncnc43)O[C@@H]2CO)cc1 [puromycin]
association of p110beta mRNA with synaptoneurosomal polysomes (p110beta mRNA; SNS, puromycin 2 mM, 30 min at 37° C.): sensitive to puromycin treatment
